# Columns and labels:
# [1] = test system: Plutella xylostella; assay: Effect against Plutella xylostella caterpillars; assay type: in vivo; conditions: 400 ppm spray on cabbage plants, third-instar caterpillars, three days
# Protocol: (§1) Young cabbage plants are sprayed with an aqueous emulsion spray mixture containing 400 ppm of active ingredient. After the spray coating has dried on, the cabbage plants are colonised with 10 third-instar caterpillars of Plutella xylostella and placed in a plastic container. Three days later they are evaluated. The percentage reduction of the population and percentage reduction in feeding damage (% response) is determined by comparing the number of dead larvae and the extent of feeding damage on the treated plants with those on the untreated plants.
# [2] = test system: Nilaparvata lugens; assay: Effect against Nilaparvata lugens; assay type: in vivo; conditions: 400 ppm spray on rice plants, second and third instar larvae, 21 days
# Protocol: Rice plants are sprayed with an aqueous emulsion spray mixture containing 400 ppm of active ingredient. After the spray coating has dried on, the rice plants are colonised with second and third instar larvae of plant and leaf-hoppers. 21 days later they are evaluated. The percentage reduction of the population (% response) is determined by comparing the number of surviving plant and leaf-hoppers on the treated plants with those on the untreated plants.
# [3] = test system: Heliothis virescens; assay: Ovicidal/larvicidal effect on Heliothis virescens; assay type: in vivo; conditions: 400 ppm spray on eggs laid on cotton, after 8 days
# From the text: Eggs of Heliothis virescens laid on cotton are sprayed with an aqueous emulsion spray mixture containing 400 ppm of active ingredient. After 8 days, the percentage hatching rate of the eggs and the survival rate of the caterpillars are compared with those for untreated controls (% reduction of population)
# [4] = test system: Heliothis virescens; assay: Effect on Heliothis virescens caterpillars; assay type: in vivo; conditions: 400 ppm spray on soya plants, first-instar larvae, six days
# Protocol: as §1, with “soya” for “cabbage”, “After drying of” for “After”, “deposit,” for “coating has dried on,”, “first-instar larvae” for “third-instar caterpillars”, “Heliothis virescens” for “Plutella xylostella”, “Six” for “Three”
# [5] = test system: Anthonomus grandis; assay: Effect against Anthonomus grandis; assay type: in vivo; conditions: 400 ppm spray on cotton plants, adults, three days
# Protocol: Young cotton plants are sprayed with an aqueous emulsion spray mixture containing 400 ppm of active ingredient. After the spray coating has dried on, the cotton plants are colonised with 10 adult Anthonomus grandis and placed in a plastic container. Three days later they are evaluated. The percentage reduction of the population and of the feeding damage (% response) is determined by comparing the total number of dead beetles and the feeding damage on the treated plants with those on the untreated plants.
# [6] = test system: Spodoptera littoralis; assay: Effect on Spodoptera littoralis; assay type: in vivo; conditions: 400 ppm spray on soybean plants, third-instar larvae, three days
# Protocol: Young soybean plants are sprayed with an aqueous emulsion spray mixture containing 400 ppm of active ingredient. After the spray deposit has dried, the plants are colonised with 10 third-instar larvae of Spodoptera littoralis and placed in a plastic container. Three days later they are evaluated. The percentage reduction of the population and of the feeding damage (% response) is determined by comparing the total number of dead caterpillars and the feeding damage on the treated plants with those on the untreated plants.
# [7] = test system: Aphis craccivora; assay: Effect against Aphis craccivora; assay type: in vivo; conditions: 400 ppm spray on pea seedlings, 20° C., 3 and 6 days
# Protocol: Pea seedlings are infected with Aphis craccivora, subsequently sprayed with a spray mixture containing 400 ppm of active ingredient, and then incubated at 20° C. 3 and 6 days later, they are evaluated. The percentage reduction of the population (% response) is determined by comparing the number of dead aphids on the treated plants with those on the untreated plants.
# [8] = test system: Boophilus microplus; assay: In vitro effect on Boophilus microplus; conditions: 100 to 0.32 ppm; BIARRA and ULAM strain identical
# Protocol: Four test series each of 10 engorged female adults of Boophilus microplus are stuck to a plastic plate and covered for 1 hour with a wad of cottonwool soaked with an aqueous suspension or emulsion of the test substance. The test is carried out with concentrations of 100, 32, 10, 3.2, 1.0 and 0.32 ppm. The wad of cottonwool is then removed, and the ticks are incubated for 28 days for the eggs to be laid. The effect on Boophilus microplus is assessed according to the following 5 criteria:
# 1. Number of dead females (immobile with black discoloration) before ovipositon;
# 2. Number of ticks surviving for several days, but no eggs laid;
# 3. Number of cases in which eggs are laid, but nothing is hatched;
# This test is carried out with both the BIARRA and the ULAM strain, and the results in both cases are identical.
# [9] = test system: Diabrotica balteata; assay: Effect on Diabrotica balteata larvae; assay type: in vivo; conditions: 400 ppm spray on corn seedlings, second instar larvae, six days
# Protocol: Corn seedlings are sprayed with an aqueous emulsion spray mixture containing 400 ppm of active ingredient. After drying of the spray deposit, the corn seedlings are colonised with 10 second instar larvae of Diabrotica balteata and placed in a plastic container. Six days later they are evaluated. The percentage reduction of the population (% response) is determined by comparing the number of dead larvae on the treated plants with those on the untreated plants.
# [10] = test system: Dermanyssus gallinae; assay: Comparative in vitro effect on Dermanyssus gallinae
# Protocol: 15 fed adult female mites of the genus Dermanyssus gallinae fixed on a plastic adhesive film are brought into contact with 50 μl of an aqueous suspension or emulsion of the test substance. The test is carried out with concentrations of 32, 10, 3.2, 1.0, 0.32 to 0.1 ppm. After drying, the film is stuck onto a glass disc. This creates a kind of air bubble around each mite, the lower surface of which is formed by the glass disc and the upper surface by a bulging of the adhesive film. This bubble contains sufficient air for the mite to avoid suffocating. After 5 days, the effect of the test substance is evaluated with the aid of a stereo-microscope by assessing the effect on mortality, egg deposition, egg quality, hatching rate, pupation rate, and development of protonymphs according to the following 4 criteria:
# 1. if 9 to 10 mites are dead, this indicates a lethal effect (M);
# 3. if 2 or more mites survive and produce eggs, but no larvae hatch from these eggs and no protonymphs develop, this indicates a development-inhibiting effect (H);
# 4. if 2 or more mites survive and lay the usual number of normal eggs, from which larvae hatch and develop into protonymphs, this indicates no activity.
# [11] = test system: Bemisia tabaci; assay: Effect against Bemisia tabaci; assay type: in vivo; conditions: 400 ppm spray on dwarf bean plants with nymphs, after a further 14 days
# From the text: Dwarf bean plants are placed in gauze cages and colonised with adults of Bemisia tabaci. Following oviposition, all adults are removed. Ten days later, the plants and the nymphs thereon are sprayed with an aqueous emulsion spray mixture containing 400 ppm of the active ingredient. After a further 14 days, the percentage hatching rate of the eggs is compared with that of untreated controls.
smiles,measurement,setting,value
"Fc1cccc(F)c1C1=NC(c2ccc(-c3ccc(C(F)(F)F)cc3)cc2)CO1 (single isomer, unassigned) [1.1, 2-(2,6-difluoro-phenyl)-4-(4′-trifluoromethylbiphenyl-4-yl)-4,5-dihydro-oxazole]",percentage reduction of the population and percentage reduction in feeding damage (% response),[1],more than 80%
same,percentage reduction of the population (% response),[2],more than 80%
same,% reduction of population (hatching rate of eggs and survival rate of caterpillars),[3],more than 80%
same,percentage reduction of the population and percentage reduction in feeding damage (% response),[4],more than 80%
same,percentage reduction of the population and of the feeding damage (% response),[5],more than 80%
same,percentage reduction of the population and of the feeding damage (% response),[6],more than 80%
same,percentage reduction of the population (% response),[7],more than 80%
same,activity on Boophilus microplus (in words),[8],most active test substance
same,percentage reduction of the population (% response),[9],more than 80%
same,concentration that completely inhibits the development of protonymphs,[10]; after 5 days,≤ 0.0064 ppm
same,Type of activity,"[10]; at the EC100 of the same table line, listed as Enantiomer A",1
same,EC100 (minimum dosage to reach 100% mortality),"[10]; fed adult female mites, evaluated after 5 days, listed as Enantiomer A",0.0064 ppm
same,activity relative to enantiomer B,[10]; ratio of EC100,3000-5000 times
same,activity relative to the racemate,[10]; ratio of EC100,more than 30 times
same,response (percentage hatching rate of the eggs vs untreated controls),[11],more than 80%
